Marks after values point to notes of the source that are not given here.
Legend:
[1] = tested on: cyanobacteria Synechocystos 6803; assay type: cell-based; conditions: Synechocystos 6803, BG-11 agar, 1 mM herbicide; homopolymer as film cast in Petri dish
Description: (§1) BG-11 medium containing 1.5 wt. % agar was prepared and sterilized at 121° C., 1.05 kg cm^−2 for 20 minutes. Each herbicide tested was prepared as a 30 mM solution and added to the autoclaved agar medium to yield a 1 mM final concentration of the herbicide. A 20 mL aliquot of the liquid agar was transferred into a standard Petri dish (100×15 mm) and allowed to harden at room temperature. Cell suspensions of green algae CD 1 Red, cyanobacteria Synechocystos 6803 and Synechococcus 7002 were inoculated using a sterile inoculation loop. Dishes were stored at 25° C. under illumination with the cool-white fluorescent light having a constant light intensity of 5000 lx. The experiment for each herbicide was repeated five times. Control and treated cultures grew under the same conditions of temperature and photoperiod. In each experiment, the inhibition of growth in treated cultures was monitored relative to the growth in control samples using qualitative visual observation.
(§2) Additional experiments for testing the toxicity of the homopolymer of AA were implemented. Ten mL of aqueous polymer solution was placed on a sterile Petri dish and left at room temperature until all water was evaporated (3 days) to form a thin polymer film. Twenty mL of the liquid agar was transferred into the Petri dish and allowed to harden at room temperature. Cell suspensions of green algae CD 1 Red, cyanobacteria Synechocystos 6803 and Synechococcus 7002 were inoculated using a sterile inoculation loop. An analogous system containing no polymer film was used as a control for the experiment. Inhibition of growth in treated cultures was monitored relative to the growth in control samples using qualitative visual observations.

[2] = tested on: cyanobacteria Synechococcus 7002; assay type: cell-based; conditions: Synechococcus 7002, BG-11 agar, 1 mM herbicide; homopolymer as film cast in Petri dish
Description: as §1, §2

[3] = tested on: cyanobacteria Synechococcus 7002; experiment: Liquid culture growth inhibition (optical density), salt water cyanobacteria; assay type: cell-based; conditions: Synechococcus 7002, BG-11 liquid medium, 1 mM herbicide, 7 days; control 0.72
Description: (§3) Strains of green algae, cyanobacteria and E. Coli were used as test organisms. The green algae CD 1 Red and cyanobacteria Synechocystos 6803 were obtained from the collection of Prof. George Bullerjahn. Salt water strain of cyanobacteria Synechococcus 7002 was obtained from the collection of Prof. Michael McKay. E Coli DH 5α was obtained from Invitrogen Inc.
Green algae and cyanobacteria were propagated photoautotrophically in 250 mL Erlenmeyer flasks containing 100 mL of liquid BG-11 culture medium (see Supporting Information). The cultures were kept on a rotating shaker (100 rpm) at 25° C. for 4 days and continuously illuminated with cool-white fluorescent light with a constant light intensity of 5000 lux. The grown culture medium was sterilized in an autoclave at 121° C. and 1.05 kg cm^−2 pressure for 20 min. For the cell experiments, 20 mL aliquots of the BG-11 medium containing the green algal ([cells]initial=5.9×10^7 mL^−1) or cyanobacteria cells ([cells]initial=1.7×10^9 mL^−1) were placed in sterile 50 mL Erlenmeyer flasks. CD 1 Red, Synechocystos 6803 and Synechococcus 7002 were then treated with an aliquot of a stock herbicide solution to bring the final herbicide concentration to 1 mM and incubated for 7 days on a rotator shaker (100 rpm) at 25° C. and continuous light intensity of 5000 lux. Cell counts were correlated with the absorbance and measured as a function of time using a Spectronic 20 Genesis spectrophotometer. As previously reported by Ma et al., 5 the optimal wavelength for monitoring culture growth is 680 nm. Experiments for each herbicide were repeated three times. Control and treated cultures were grown under the same conditions of temperature, photoperiod, and agitation. In each experiment, the inhibition of cell growth in treated cultures was monitored spectrophotometrically and compared to the growth in control samples.

Solubility (qualitative) = assay type: physicochemical
E. Coli = E. Coli agar experiments (colony count); assay type: cell-based; conditions: M9 agar, 1 mM herbicide, 37° C., 24 hours; controls 36 colonies
Description: A M9 minimum medium containing 1.5 wt. % agar was prepared and sterilized at 121° C., 1.05 kg cm^−2 for 20 min. An aliquot of each tested herbicide solution was added to portions of the autoclaved agar to give a 1 mM final concentration of the herbicide. Twenty mL of the liquid agar was poured into a standard Petri dish and allowed to harden at room temperature. E. Coli cell suspensions were inoculated using a sterile inoculation loop and stored at 37° C. for 24 hours. Control and treated cultures were grown under the same conditions. In each experiment, the inhibition of growth in treated cultures was monitored relative to growth in control samples by manually counting the number of colonies.

[4] = tested on: cyanobacteria Synechocystos 6803; experiment: Liquid culture growth inhibition (optical density), fresh water cyanobacteria; assay type: cell-based; conditions: Synechocystos 6803, BG-11 liquid medium, 1 mM herbicide, control 1.4
Description: as §3
Green algae and cyanobacteria were propagated photoautotrophically in 250 mL Erlenmeyer flasks containing 100 mL of liquid BG-11 culture medium (see Supporting Information). The cultures were kept on a rotating shaker (100 rpm) at 25° C. for 4 days and continuously illuminated with cool-white fluorescent light with a constant light intensity of 5000 lux. The grown culture medium was sterilized in an autoclave at 121° C. and 1.05 kg cm^−2 pressure for 20 min. For the cell experiments, 20 mL aliquots of the BG-11 medium containing the green algal ([cells]initial=5.9×10^7 mL^−1) or cyanobacteria cells ([cells]initial=1.7×10^9 mL^−1) were placed in sterile 50 mL Erlenmeyer flasks. […] Cell counts were correlated with the absorbance and measured as a function of time using a Spectronic 20 Genesis spectrophotometer. […] In each experiment, the inhibition of cell growth in treated cultures was monitored spectrophotometrically and compared to the growth in control samples.

E Coli DH 5α = experiment: Liquid culture growth inhibition (optical density), E. Coli; assay type: cell-based; conditions: for Optical Density at 680 nm, measurements taken after 24 hours of growth: E. Coli, M9 minimum medium, 30 mM herbicide, control 1.30; for Toxicity towards E. Coli (liquid culture): inhibition only during first 10 hours, beyond 24 hours optical density matched controls
Description: as §3
E. Coli was propagated heterotrophically in a 2 mL Eppendorf test-tube containing 1.5 mL of liquid M9 minimum medium (see Supporting Information) and kept on a rotating shaker (100 rpm) at 37° C. for 12 hours. The grown culture medium was sterilized at 121° C., 1.05 kg cm^−2 for 20 min. For the cell experiments, 100 mL aliquots of the M9 medium containing the E. Coli cells ([cells]initial=6×10^5 mL^−1) were distributed into sterile 250 mL Erlenmeyer flasks and treated with a stock herbicide solution to obtain a final concentration of 30 mM, followed by an incubation for 24 h on a rotating shaker (100 rpm) at 37° C. […] Control and treated cultures were grown under the same conditions of temperature and shaking. In each experiment, the inhibition of growth in treated cultures was monitored spectrophotometrically and compared to the growth in control samples.

Navicula pelliculosa = experiment: Inhibition zones around polymer pellets, diatom Navicula; assay type: cell-based; conditions: pellet without herbicide 10 ± 1
Description: Rectangular copolymer pellets (15×10×1.5 mm) were formed from a model acrylic resin (designated as 459S2) containing several epoxy acrylic oligomers (57%), acrylic monomeric diluents (43%) and a corresponding amount of herbicide. A designated quantity of herbicide was dispersed or partially dissolved in 459S2 resin using ultrasonication and heat (60° C., overnight). To each sample, 1.5% wt. of commercial photoinitiator (ITX), 5% of ODAB synergist and 0.1% co-photoinitiator (Irgacure 819) were added. Liquid formulations were poured into an open top Teflon mold and irradiated under N2 by a 395 nm LED light source for 5 min followed by pellet removal.
Two different diatom cultures, Phaeodactylum tricornutum and Navicula pelliculosa were used in the biological activity tests. […] Following propagation over 5 days under continuous cool fluorescent light (5000 lx), the average radii of inhibition zones were measured. Experiments for each herbicide concentration were repeated at least two times.

[5] = herbicide 0.15 M in 459S2 polymer pellet
[6] = herbicide 0.3 M in 459S2 polymer pellet

| Structure (SMILES) | Growth on agar plates compared to control (visual) [1] | Growth on agar plates compared to control (visual) [2] | Optical Density at 680 nm after 7 days of media growth [3] | Solubility in organic solvents (Solubility (qualitative)) | Solubility in water (Solubility (qualitative)) | Number of E. Coli colonies (E. Coli) [colonies] | Optical Density at 680 nm after 7 days of media growth [4] | Optical Density at 680 nm, measurements taken after 24 hours of growth (E Coli DH 5α) | Toxicity towards E. Coli (liquid culture) (E Coli DH 5α) | Diameter of Inhibition Zone (Bleaching indicates no growth detected on 100 mm plate) (Navicula pelliculosa; [5]) [mm] | Diameter of Inhibition Zone (Bleaching indicates no growth detected on 100 mm plate) (Navicula pelliculosa; [6]) |
| --- | --- | --- | --- | --- | --- | --- | --- | --- | --- | --- | --- |
| C=CC(=O)N(CC(=O)O)CP(=O)(O)O [AA, N-Acryloyl-N-(phosphonomethyl)glycine] | complete inhibition of growth and bleaching | complete inhibition of growth and bleaching | 0.07 | poorly soluble in most organic solvents | soluble in water | 6 | 0.54 | 1.24^c | do not display reasonable toxicity | 20 ± 2 | Bleaching |
| O=C(O)CNCP(=O)(O)O [Glyphosate, N-(Phosphonomethyl)glycine, reference compound] | complete inhibition of growth and bleaching | complete inhibition of growth and bleaching | 0.04 | poor solubility in organic solvents | – | 11 | 0.58 | 1.20^c | do not display reasonable toxicity | 22.5 ± 2 | Bleaching |
